In one test the test system is brain glioma. As to conditions: in combination with brief radiation; ref [48]; cited from earlier work. The text has this:
We asked whether the collective evidence of the role of ligands of CLEC10A, such as promoting DC maturation, T cell activation, and initiation of an immune response would coalesce into an effective anti-cancer therapy. To achieve this goal, the ligand should serve as a ‘trigger’ to initiate a cascade of events that will lead to activation of the immune system. Given that natural ligands of CLEC10A that contain GalNAc bind with low affinity and are antigenic, we considered whether a multivalent peptide mimetic of GalNAc would serve this purpose. We previously described ef ...

Another test relates to Siglec-1. Kind of test: Solid-phase binding to Siglec-1. Also noted: species or system human. As to conditions: Fig. 2b. The protocol: (§1) Solid-phase binding assays were performed with streptavidin-, protein A/G-, or Nickel-coated microtiter plates (Pierce). His-tagged or Fc-fusion recombinant receptors (R&D Systems, Minneapolis, MN) were reconstituted in PBS. Sufficient receptors were added to wells to saturate the coating. His-tagged receptors were added to each well at a 5-fold excess over the stated capacity of the Ni coating to minimize non-specific binding of the peptide. Wells were washed three times with binding buffer (25 mM Tris HCl, pH 7.4, 150 mM NaCl, 0.05% Tween-20) to remove unbound receptor and 50 μL of 2 μM biotinylated peptide in binding buffer were added and allowed to incubate for 1 h. The wells were washed four times with binding buffer and then incubated with 50 μL of 1 μg/mL streptavidin conjugated with peroxidase (Sigma-Aldrich) for 1 h. […] After several minutes to allow color development, the reaction was stopped with 50 μL 1 M H3PO4 and absorbance was measured at 450 nm. Bound streptavidin was quantitated by the specific activity of peroxidase (absorbance/ng protein conjugate/min) under the conditions of the assay.
(§2) Solid-phase binding assays were performed with recombinant human receptors. […] After extensive washing, the bound receptor was measured by peroxidase conjugated to a receptor-specific antibody. […]

In test [1] the test system is peritoneal low FSc and low SSc cells. Put plainly: Peritoneal small-cell population in 4T1 tumor-bearing Balb/c mice. The conditions noted are these: 1 nmole/g. Type of test: in vivo, mouse (Balb/c). The protocol: After tumors had reached a volume of at least 500 mm^3, the peritoneal population of low FSc and low SSc cells was minimal (Fig. S2a). […] We conclude that this population is possibly progenitor cells and that additional treatments would lead to maturation of this population, as observed with healthy animals.
Fig. S2. Increase in the population of small cells in the peritoneal cavity of Balb/c mice bearing tumors of breast 4T1 cancer cell line. svL4 (1 nmole/g) was injected on day 0 and day 2, with analysis 24 h after each injection. a) Pseudocolor scatter plots of peritoneal cells from untreated or treated mice on day 3, 24 h after the second injection. […] Untreated animals, blue; treated animals, orange. Peritoneal cells from 3 animals were pooled and analyzed in triplicate. c) Histograms of normalized SSc vs. FSc for samples of peritoneal cells from Balb/c mice on day 3, from Fig. S2b, i.e., 24 h after the second injection of svL4. Blue trace, untreated animals; red trace, svL4-treated animals.

A further test deals with DC-SIGN. Put plainly: Solid-phase binding to DC-SIGN. More on the design: species or system human. As to conditions: Fig. 2b. Here is the method: as §1, §2
Test [2] relates to peritoneal cells of C57BL/6 mice. Kind of test: Peritoneal immune cell populations by flow cytometry, C57BL/6 mice. Type of test: in vivo, mouse (C57BL/6). Here is the method:
Healthy C57BL/6 male mice, 10 weeks old, were injected subcutaneously with peptides on alternate days. Peritoneal cells were isolated from mice 24 h after dosing by injecting ice cold PBS (containing 3% FBS) into the peritoneal cavity, gently massaging the abdomen, and then collecting the fluid, which was transferred into K2EDTA-treated tubes for evaluation of specific biomarkers. Cells from three mice in each group were pooled, counted and divided among FACS tubes (1 × 10^6 cells per tube). Cells were washed once in PBS containing 3% FBS, then stained with 0.25 to 1 μg of fluorescently conjugated antibody per 10^6 cells in 100 μL of buffer as recommended by the manufacturer (Table 2).
Cells were incubated with the antibodies for 30 min at 4 °C in the dark. Following staining, the cells were washed two times with PBS/3% FBS and immediately analyzed with a MACSQuant flow cytometer (Miltenyi Biotech, Inc., San Diego, CA). Compensation was performed using single stain tubes for each color present in the analysis as well as an unstained control sample. Collection of flow cytometric data and analysis with FlowJo software, version 10.0.6 (FlowJo, LLC, Ashland, OR) were performed by Biomodels LLC (Watertown, MA).
To examine whether increases occurred in mature immune cells, peritoneal cells from Balb/c and C57BL/6 mice were analyzed by flow cytometry after cells were stained with the markers listed in Table 2. […] To explore this observation more extensively, svL4 or sv6D was injected into C57BL/6 mice on day 0, 2 or 4. Peritoneal cells were examined by flow cytometry 24 h after each injection. Shown in Fig. 5 are results expressed as cell counts for F4/80 CD11b CD86 (mature, active macrophages); CD11c (DCs); CD11c CD 86 (activated DCs); CD4 CD69 (activated T cells); CD8 CD69 (activated cytotoxic T cells); NK1.1 CD3^+ CD69 (activated NKT cells); NK1.1 CD3^− CD69 (activated NK cells); CD19 (B cells); and CD19 CD73 CD80 CD273 (memory B cells). The numbers of these mature, activated cells continued to increase with each injection.
Fig. 5 Expansion of peritoneal cells in C57BL/6 mice. Mice were injected subcutaneously at a dose of 1 nmole/g body weight of svL4, sv6D or svC1. Cells in each population recovered in a peritoneal lavage are expressed as cell counts (in thousands). Cells from three mice in each treatment group were pooled for analysis. The number of cells in each population was normalized to the average recovery of total cells from all groups. For each cell type, the left-hand, middle and right-hand set of bars represent samples from mice treated with svL4, sv6D or svC1, respectively. Mice were injected on days 0, 2 and 4, and cells were collected 24 h after each injection. Day 1, open bar; day 3, grey bar; day 5, black bar. Populations that express activation markers are indicated by an asterisk
(In general: A flow cytometer gives signals particle by particle.)

Bridges are numbered along the chain shown (N, C = ends). Roman numbers before positions name the chains, in order. Where no end group is shown, it is not given here.

As to “I: VQATQSNQHTPRGGGSKK-NH2 / II: VQATQSNQHTPRGGGSK / III: VQATQSNQHTPRGGGS / IV: VQATQSNQHTPRGGGS (amide I:17-IV:C, I:18-II:C, II:17-III:C) [svL4]”, in the test on brain glioma, the “efficacy in murine brain glioma model” value is “efficacy”. Besides, in the test with Siglec-1, the “binding to Siglec-1” value was “did not bind significantly”. For the same substance, the “size of small-cell population” value in test [1] (24 h after first injection) is “not changed significantly”; in test [1] (within 24 h after second injection), “dramatic increase”. Further, the “CD3^+ fraction of small cells” value in test [1] (after second injection) worked out at 0.5%. Also, the “CD19^+ fraction of small cells” value in test [1] (after second injection) is given as “about 3%”. Also, in the test with DC-SIGN, the “binding to DC-SIGN” value is listed as “did not bind significantly”. In test [2] (0.05 nmole/g svL4), the “decrease of CD90.2^+ cells as small-cell population increased” value was “more than 50%”. Further, the “response of CD19^+ B cells vs. sv6D” value in test [2] (1 nmole/g s.c. on days 0, 2, 4, Fig. 5) is listed as “responded more strongly to svL4”. The “increase in mature immune cells” value in test [2] (1 nmole/g s.c., single vs. second injection, 24 h) is listed as “a significant increase occurred only after the second injection”; in test [2] (within 24 h after an injection (data not shown)), “Essentially no increase”. The “Lin/CD90.2 status of small cells” value in test [2] (0.1 or 0.5 nmole/g svL4) was “nearly all cells were Lin^Neg and CD90.2^Neg”. Moreover, the “small cells (low FSc, low SSc)” value in test [2] (within 24 h after injection, healthy C57BL/6, Fig. S1a) is reported as “several-fold increase”.

The values are drawn from publication PMC5905120, “An innovative immunotherapeutic strategy for ovarian cancer: CLEC10A and glycomimetic peptides” (Journal for Immunotherapy of Cancer, 2018).
